In patent US11667645B2, “Granzyme B directed imaging and therapy” (CytoSite Biopharma Inc., priority 2018, dated 2023):

Target: Granzyme B (human lymphocytes) (Homo sapiens (Human), UniProt P10144)
Assay: human Granzyme B biochemical assay
Conditions: Granzyme B (human lymphocytes) 5 nM, substrate Ac-IETD-AFC 200 μM, Cpd incubation with enzyme 30 mins, 22° C., read time 60 mins; read-out: IC50
Summary of the method: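 Enzyme (10 nM working stock, assay buffer with 0.1% BSA) pre-incubated with compound for 30 min at 22 °C, then Ac-IETD-AFC (800 µM working stock) added for 60 min at 22 °C in the dark. Fluorescence read at Ex 400/Em 505 nm; 8-point 3.16-fold series (40 µM top working stock); IC50 from % inhibition versus standard-inhibitor and DMSO controls.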

Chain of Granzyme B (human lymphocytes) (P10144 21-247): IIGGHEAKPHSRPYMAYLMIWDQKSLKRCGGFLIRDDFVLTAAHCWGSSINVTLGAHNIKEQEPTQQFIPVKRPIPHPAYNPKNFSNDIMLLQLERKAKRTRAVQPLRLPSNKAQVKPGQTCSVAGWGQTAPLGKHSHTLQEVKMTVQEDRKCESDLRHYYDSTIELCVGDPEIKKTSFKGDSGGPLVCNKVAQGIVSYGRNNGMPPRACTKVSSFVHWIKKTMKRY

SMILES	IC50
CC[C@H](C)[C@H](NC(=O)COCCF)C(=O)N[C@H]1CCc2cccc3c2N(C1=O)[C@H](C(=O)NCc1cncs1)C3 [Compound C112, (2S,5S)-5-{(2S,3S)-2-[2-(2-Fluoro-ethoxy)-acetylamino]-3-methyl-pentanoylamino}-4-oxo-1,2,4,5,6,7-hexahydro-azepino[3,2,1-hi]indole-2-carboxylic acid (thiazol-5-ylmethyl)-amide]	> 5 µM
CC[C@H](C)[C@H](NC(=O)COCCF)C(=O)N[C@H]1CCc2cccc3c2N(C1=O)[C@H](C(=O)NCc1cocn1)C3 [Compound C114, (2S,5S)-5-{(2S,3S)-2-[2-(2-Fluoro-ethoxy)-acetylamino]-3-methyl-pentanoylamino}-4-oxo-1,2,4,5,6,7-hexahydro-azepino[3,2,1-hi]indole-2-carboxylic acid (oxazol-4-ylmethyl)-amide]	> 5 µM
CC[C@H](C)[C@H](NC(=O)COCCF)C(=O)N[C@H]1CCc2cccc3c2N(C1=O)[C@H](C(=O)NCc1cscn1)C3 [Compound C115, (2S,5S)-5-{(2S,3S)-2-[2-(2-Fluoro-ethoxy)-acetylamino]-3-methyl-pentanoylamino}-4-oxo-1,2,4,5,6,7-hexahydro-azepino[3,2,1-hi]indole-2-carboxylic acid (thiazol-4-ylmethyl)-amide]	> 5 µM
CC[C@H](C)[C@H](NC(=O)COCCF)C(=O)N[C@H]1CCc2cccc3c2N(C1=O)[C@H](C(=O)NCc1cn[nH]c1)C3 [Compound C116]	> 5 µM
CC[C@H](C)[C@H](NC(=O)COCCF)C(=O)N[C@H]1CCc2cccc3c2N(C1=O)[C@H](C(=O)NCc1cnoc1)C3 [Compound C117, (2S,5S)-5-{(2S,3S)-2-[2-(2-Fluoro-ethoxy)-acetylamino]-3-methyl-pentanoylamino}-4-oxo-1,2,4,5,6,7-hexahydro-azepino[3,2,1-hi]indole-2-carboxylic acid (isoxazol-4-ylmethyl)-amide]	> 5 µM
CC[C@H](C)[C@H](NC(=O)COCCF)C(=O)N[C@H]1CCc2cccc3c2N(C1=O)[C@H](C(=O)NCc1cnsc1)C3 [Compound C118, (2S,5S)-5-{(2S,3S)-2-[2-(2-Fluoro-ethoxy)-acetylamino]-3-methyl-pentanoylamino}-4-oxo-1,2,4,5,6,7-hexahydro-azepino[3,2,1-hi]indole-2-carboxylic acid (isothiazol-4-ylmethyl)-amide]	> 5 µM
CC[C@H](C)[C@H](NC(=O)COCCF)C(=O)N[C@H]1CCc2cccc3c2N(C1=O)[C@H](C(=O)NCc1nn[nH]n1)C3 [Compound C119, (2S,5S)-5-{(2S,3S)-2-[2-(2-Fluoro-ethoxy)-acetylamino]-3-methyl-pentanoylamino}-4-oxo-1,2,4,5,6,7-hexahydro-azepino[3,2,1-hi]indole-2-carboxylic acid (2H-tetrazol-5-ylmethyl)-amide]	0.001 to 0.3 µM
CC[C@H](C)[C@H](NC(=O)COCCF)C(=O)N[C@H]1CCc2cccc3c2N(C1=O)[C@H](C(=O)NCCc1cnn[nH]1)C3 [Compound C120, (2S,5S)-5-{(2S,3S)-2-[2-(2-Fluoro-ethoxy)-acetylamino]-3-methyl-pentanoylamino}-4-oxo-1,2,4,5,6,7-hexahydro-azepino[3,2,1-hi]indole-2-carboxylic acid [2-(3H-[1,2,3]triazol-4-yl)-ethyl]-amide]	> 5 µM
CC[C@H](C)[C@H](NC(=O)COCCF)C(=O)N[C@H]1CCc2cccc3c2N(C1=O)[C@H](C(=O)NCc1ccccn1)C3 [Compound C121, (2S,5S)-5-{(2S,3S)-2-[2-(2-Fluoro-ethoxy)-acetylamino]-3-methyl-pentanoylamino}-4-oxo-1,2,4,5,6,7-hexahydro-azepino[3,2,1-hi]indole-2-carboxylic acid (pyridin-2-ylmethyl)-amide]	> 5 µM
CC[C@H](C)[C@H](NC(=O)COCCF)C(=O)N[C@H]1CCc2cccc3c2N(C1=O)[C@H](C(=O)NCc1cccnc1)C3 [Compound C122, (2S,5S)-5-{(2S,3S)-2-[2-(2-Fluoro-ethoxy)-acetylamino]-3-methyl-pentanoylamino}-4-oxo-1,2,4,5,6,7-hexahydro-azepino[3,2,1-hi]indole-2-carboxylic acid (pyridin-3-ylmethyl)-amide]	> 5 µM
CC[C@H](C)[C@H](NC(=O)COCCF)C(=O)N[C@H]1CCc2cccc3c2N(C1=O)[C@H](C(=O)NCc1ccncc1)C3 [Compound C123, (2S,5S)-5-{(2S,3S)-2-[2-(2-Fluoro-ethoxy)-acetylamino]-3-methyl-pentanoylamino}-4-oxo-1,2,4,5,6,7-hexahydro-azepino[3,2,1-hi]indole-2-carboxylic acid (pyridin-4-ylmethyl)-amide]	> 5 µM
CC[C@H](C)[C@H](NC(=O)COCCF)C(=O)N[C@H]1CCc2cccc3c2N(C1=O)[C@H](C(=O)NCc1ccccc1C)C3 [Compound C127, (2S,5S)-5-{(2S,3S)-2-[2-(2-Fluoro-ethoxy)-acetylamino]-3-methyl-pentanoylamino}-4-oxo-1,2,4,5,6,7-hexahydro-azepino[3,2,1-hi]indole-2-carboxylic acid 2-methyl-benzylamide]	> 5 µM
CC[C@H](C)[C@H](NC(=O)COCCF)C(=O)N[C@H]1CCc2cccc3c2N(C1=O)[C@H](C(=O)NCc1cccc(C)c1)C3 [Compound C128, (2S,5S)-5-{(2S,3S)-2-[2-(2-Fluoro-ethoxy)-acetylamino]-3-methyl-pentanoylamino}-4-oxo-1,2,4,5,6,7-hexahydro-azepino[3,2,1-hi]indole-2-carboxylic acid 3-methyl-benzylamide]	> 5 µM
CC[C@H](C)[C@H](NC(=O)COCCF)C(=O)N[C@H]1CCc2cccc3c2N(C1=O)[C@H](C(=O)NCc1ccc(C)cc1)C3 [Compound C129, (2S,5S)-5-{(2S,3S)-2-[2-(2-Fluoro-ethoxy)-acetylamino]-3-methyl-pentanoylamino}-4-oxo-1,2,4,5,6,7-hexahydro-azepino[3,2,1-hi]indole-2-carboxylic acid 4-methyl-benzylamide]	> 5 µM
CC[C@H](C)[C@H](NC(=O)COCCF)C(=O)N[C@H]1CCc2cccc3c2N(C1=O)[C@H](C(=O)NCc1ccccc1Cl)C3 [Compound C130, (2S,5S)-5-{(2S,3S)-2-[2-(2-Fluoro-ethoxy)-acetylamino]-3-methyl-pentanoylamino}-4-oxo-1,2,4,5,6,7-hexahydro-azepino[3,2,1-hi]indole-2-carboxylic acid 2-chloro-benzylamide]	> 5 µM
CC[C@H](C)[C@H](NC(=O)COCCF)C(=O)N[C@H]1CCc2cccc3c2N(C1=O)[C@H](C(=O)NCc1cccc(Cl)c1)C3 [Compound C131, (2S,5S)-5-{(2S,3S)-2-[2-(2-Fluoro-ethoxy)-acetylamino]-3-methyl-pentanoylamino}-4-oxo-1,2,4,5,6,7-hexahydro-azepino[3,2,1-hi]indole-2-carboxylic acid 3-chloro-benzylamide]	> 5 µM
CC[C@H](C)[C@H](NC(=O)COCCF)C(=O)N[C@H]1CCc2cccc3c2N(C1=O)[C@H](C(=O)NCc1ccc(Cl)cc1)C3 [Compound C132, (2S,5S)-5-{(2S,3S)-2-[2-(2-Fluoro-ethoxy)-acetylamino]-3-methyl-pentanoylamino}-4-oxo-1,2,4,5,6,7-hexahydro-azepino[3,2,1-hi]indole-2-carboxylic acid 4-chloro-benzylamide]	> 5 µM
CC[C@H](C)[C@H](NC(=O)COCCF)C(=O)N[C@H]1CCc2cccc3c2N(C1=O)[C@H](C(=O)NCc1cc(Cl)cc(Cl)c1)C3 [Compound C133, (2S,5S)-5-{(2S,3S)-2-[2-(2-Fluoro-ethoxy)-acetylamino]-3-methyl-pentanoylamino}-4-oxo-1,2,4,5,6,7-hexahydro-azepino[3,2,1-hi]indole-2-carboxylic acid 3,5-dichloro-benzylamide]	> 5 µM
CC[C@H](C)[C@H](NC(=O)COCCF)C(=O)N[C@H]1CNc2cccc3c2N(C1=O)[C@H](C(=O)NCc1c[nH]nn1)C3 [Compound C143, (3S,6S)-3-{(2S,3S)-2-[2-(2-Fluoro-ethoxy)-acetylamino]-3-methyl-pentanoylamino}-4-oxo-1,2,3,4,6,7-hexahydro-[1,4]diazepino[3,2,1-hi]indole-6-carboxylic acid (1H-[1,2,3]triazol-4-ylmethyl)-amide]	0.001 to 0.3 µM
CC[C@H](C)[C@H](NC(=O)COCCF)C(=O)N[C@H]1CN(C)c2cccc3c2N(C1=O)[C@H](C(=O)NCc1c[nH]nn1)C3 [Compound C144, (3S,6S)-3-{(2S,3S)-2-[2-(2-Fluoro-ethoxy)-acetylamino]-3-methyl-pentanoylamino}-1-methyl-4-oxo-1,2,3,4,6,7-hexahydro-[1,4]diazepino[3,2,1-hi]indole-6-carboxylic acid (1H-[1,2,3]triazol-4-ylmethyl)-amide]	0.001 to 0.3 µM
CC[C@H](C)[C@H](NC(=O)Cc1csc2ccccc12)C(=O)N[C@H]1COc2cccc3c2N(C1=O)[C@H](C(=O)NCc1c[nH]nn1)C3 [Compound C146, (1S,8S)-8-[(2S,3S)-2-(2-Benzo[b]thiophen-3-yl-acetylamino)-3-methyl-pentanoylamino]-9-oxo-1,2,8,9-tetrahydro-7H-6-oxa-9a-aza-benzo[cd]azulene-1-carboxylic acid (1H-[1,2,3]triazol-4-ylmethyl)-amide]	0.001 to 0.3 µM
N[C@H]1CCc2cccc3c2N(C1=O)[C@H](C(=O)NCc1c[nH]nn1)C3 [Compound C147, (2S,5S)-5-Amino-4-oxo-1,2,4,5,6,7-hexahydro-azepino[3,2,1-hi]indole-2-carboxylic acid (1H-[1,2,3]triazol-4-ylmethyl)-amide]	> 5 µM
CC(=O)N[C@H]1CCc2cccc3c2N(C1=O)[C@H](C(=O)NCc1c[nH]nn1)C3 [Compound C148, (2S,5S)-5-Acetylamino-4-oxo-1,2,4,5,6,7-hexahydro-azepino[3,2,1-hi]indole-2-carboxylic acid (1H-[1,2,3]triazol-4-ylmethyl)-amide]	> 5 µM
